“Also recorded” adds a separate entry of the source.
Columns and labels:
[1] = tested on: 2019 novel coronavirus (SARS-CoV-2) original strain; assay: Replication inhibitory activity against SARS-CoV-2 original strain in Vero E6 cells (qRT-PCR); assay type: cell-based; details: Severe acute respiratory syndrome coronavirus 2, Vero C1008; Vero E6 cells, MOI 0.01, 24 h p.i., viral copy number by qRT-PCR; read-out: Inhibition against viral replication of the original strain EC50
[2] = target: T1, hERG potassium channel (Homo sapiens, UniProt Q12809); assay: hERG potassium channel whole-cell membrane clamp in CHO cells; assay type: cell-based; details: CHO cells stably expressing hERG, whole-cell membrane clamp
T1 construct: expressed in transfected cells
Procedure: Compounds were given for at least 1 min for each tested concentration, and at least 2 cells (n≥2) were tested per concentration.

[3] = Cytotoxicity test on Vero E6 cells (CCK8); assay type: cell-based; details: African green monkey; Vero E6 cells, CCK8 kit
Procedure: (§1) In this embodiment, the half toxicity concentration of each embodiment on Vero E6 cells was determined by CCK8 kit analysis (CC50).

[4] = tested on: Vero E6 cells; assay: Cytotoxicity test on Vero E6 cells (CCK8); assay type: cell-based; details: Vero E6 cells
Procedure: as §1

[5] = tested on: Raw 264.7 cells; assay: Cell viability in LPS-induced inflammation model of Raw 264.7 cells (CCK-8); assay type: cell-based; details: 1 μg/ml LPS, 1 μM compound, 16 hours
Procedure: (§2) In this example, the effect of the compounds of the present invention on the inflammation level of the LPS-induced inflammation model of Raw 264.7 cells was analyzed by cell viability in combination with inflammatory factors; cell viability was analyzed by CCK-8 assay; and mRNA expression levels of inflammation-related indicators were detected by a real-time quantitative PCR (Q-PCR) method. Raw 264.7 cells were purchased from ATCC; CCK-8 kit was purchased from Meilunbio, item no. MA0218-3; LPS was purchased from Sigma, item no. L2630.
(§3) Experimental methods: first, 8000 cells/well Raw 264.7 cells were placed in 96-well plates and incubated overnight. On the second day, 0.1% DMSO was added to the control cells, 1 μg/ml LPS as well as 0.1% DMSO was added to the model group, 1 μg/ml LPS as well as 1 μM of the compounds (oxyacanthine hydrochloride (oxy), 1, 2, tetrandrine (tet), 3, 4, 6, 58) was added to the treatment group, and the 96-well plates were sterilized and incubated in a constant temperature incubator for 16 hours. Finally, the viability of the cells was detected using the CCK-8 kit.

[6] = tested on: Raw 264.7 cells; assay: Cell viability in TNF-α induced inflammation model of Raw 264.7 cells (CCK-8); assay type: cell-based; details: 10 ng/ml TNF-α, 1 μM compound, 16 hours
Procedure: (§4) In this embodiment, the effect of compounds on TNF-α-induced inflammation levels in Raw 264.7 cells was analyzed by cell viability combined with inflammatory factor expression levels; cell viability was analyzed by CCK-8 assay; and mRNA expression levels of inflammation-associated indicators were detected by real-time quantitative PCR (Q-PCR) method. Raw 264.7 cells were purchased from ATCC, CCK-8 kit was purchased from Meilunbio, item number MA0218-3, TNF-α was purchased from Merck, item no. GF314.
as §3, with “10 ng/ml TNF-α” for “1 μg/ml LPS”

[7] = tested on: inflammatory factor mRNA in Raw 264.7 cells; assay: mRNA levels of inflammatory indicators in TNF-α-induced inflammation model of Raw264.7 cells (Q-PCR); assay type: cell-based; details: 10 ng/ml TNF-α, 1 μM compound, 16 hours
Procedure: as §4
as §3, with “5*10^4” for “8000”, “12-well” for “96-well”, “10 ng/ml TNF-α” for “1 μg/ml LPS”, “Cellular mRNA was extracted by lysis using Trizol (Yisheng, 10606ES60) and detected by real-time quantitative PCR after reverse transcription,” for “Finally,”, “primers are” for “viability of”, “same as in Table 2.” for “cells was detected using the CCK-8 kit.”

[8] = tested on: ALM12 hepatocytes; assay: Anti H2O2-induced necrotic injury assay in ALM12 hepatocytes (microscopy, CCK-8); assay type: cell-based; details: 2 mM H2O2, 1 μM compound, 3 hours, microscope and CCK-8
Procedure: In this example, the effect of the compounds of the present invention on the level of necrotic injury induced by H2O2 in ALM12 hepatocytes was analyzed by microscopic morphological observations, cell viability in combination with cell death-associated molecules. Cell viability was analyzed by CCK-8 assay. ALM12 cells were cultured in 1640 medium (gibco, c11995500BT)+10% FBS (gibco, 10099141C) in a constant temperature incubator at 37° C., 5% CO2; the CCK-8 kit was purchased from Meilunbio, item no. MA0218-3; H2O2 was purchased from Sinopharm Chemical Reagent Co. item no. 10011208.
Experimental methods: first, 8000 cells/well ALM12 cells were placed in 96-well plates and incubated overnight. On the second day, 0.1% DMSO was added to the control cells, 2 mM H2O2 as well as 0.1% DMSO was added to the model group, 2 mM H2O2 as well as 1 μM of the compounds (oxy, 1, 2, tet, 3, 4, 6, 58) was added to the treatment group, and the 96-well plates were sterilized and incubated in a constant temperature incubator for 3 hours. Finally, cell injury and growth were observed using a microscope; the viability of the cells was detected by CCK-8 kit.

[9] = tested on: Th1/Th17 differentiation of CD4+T cells; assay: CD4+T cell in vitro differentiation assay (Th1 IFN-γ / Th17 IL-17A, flow cytometry); details: 10 μM, 72 h, IFN-γ/IL-17A by flow cytometry
Procedure: CD4^+T cell isolation: CD4^+T cells were isolated from the spleens of 7-8 week old C57BL/6 mice using the Mouse CD4^+T Cell Sorting Kit (Dynabeads® Untouched™ Mouse CD4 Cells Isolation Kit, Invitrogen, Catalog nos: 11415D).
In vitro differentiation of CD4^+T cells: the isolated CD4^+T cells were inoculated into 96-well plates while different concentrations of compounds were added, and then corresponding cytokines and antibodies were added: anti-CD28 (2 μg/ml), anti-CD3 (2 μg/ml), Anti-IL-4 (10 μg/ml), IL-12 (10 ng/ml), Anti-IFN-γ (10 μg/ml), anti-IL-4 (10 μg/ml), IL-6 (30 ng/ml), TGF-β1 (3 ng/ml), IL-10 (10 ng/ml), IL-23 (10 ng/ml), and TNF-α (10 ng/ml). Cells were cultured in 5% CO2 at 37° C. in a cell culture chamber for 72 h. Cells were collected, stained intracellularly, analyzed by flow cytometry, and tested for IFN-γ/IL-17A content to assess the effect of compounds on CD4^+T differentiation into Th1/Th17 in vitro.

[10] = tested on: HCoV OC43 virus; assay: Inhibition against HCoV OC43 virus replication; assay type: cell-based, human coronavirus HCoV OC43; details: for EC50: Betacoronavirus 1, OC43
[11] = target: novel coronavirus envelope protein (2-E) ion channel (Severe acute respiratory syndrome coronavirus 2, UniProt P0DTC4); assay: Novel coronavirus envelope protein (2-E) ion channel activity test, planar lipid bilayer (BLM); assay type: biochemical, SARS-CoV-2; details: room temperature, 1, 10, 50, 100 μM, read-out: Inhibition against 2-E ion channels IC50
[12] = tested on: TNF-α and IL1β mRNA in A549 cells; assay: mRNA levels of injury indicators in TNF-α-induced A549 cell injury (Q-PCR); assay type: cell-based; details: 10 ng/ml TNF-α, 1 μM compound, 24 hours
Procedure: In this example, cell viability combined with cell death-associated molecules were used to analyze the effect of compounds on the level of TNF-α-induced injury in A549 lung epithelial cells. Cell injury was observed by microscopy; cell viability was analyzed by CCK-8 assay; and mRNA expression levels of injury-related indicators were detected by real-time quantitative PCR (Q-PCR) method. A549 cells were purchased from ATCC, CCK-8 kit was purchased from Meilunbio, item no. MA0218-3, and LPS was purchased from Sigma, item no. L2630.
(§5) Experimental methods: first, 5*10^4 cells/well A549 cells were placed in 12-well plates and incubated overnight. On the second day, 0.1% DMSO was added to the control cells, 10 ng/ml TNF-α as well as 0.1% DMSO was added to the model group, 10 ng/ml TNF-α as well as 1 μM of the compounds (oxy, 1, 2, tet, 3, 4, 6, 58) was added to the treatment group, and the 12-well plates were sterilized and incubated in a constant temperature incubator for 24 hours. Cellular mRNA was extracted by lysis using Trizol (Yisheng, 10606ES60) and detected by real-time quantitative PCR after reverse transcription.

[13] = tested on: IL-6, IL-1β, CXCL9 mRNA in Raw 264.7 cells; assay: mRNA levels of inflammatory indicators in LPS-induced inflammation model of Raw264.7 cells (Q-PCR); assay type: cell-based; details: 1 μg/ml LPS, 1 μM compound, 16 hours
Procedure: as §2
as §5, with “Raw 264.7” for “A549”, “1 μg/ml LPS” for “10 ng/ml TNF-α”, “(oxyacanthine hydrochloride (oxy),” for “(oxy,”, “tetrandrine (tet),” for “tet,”, “16” for “24”

T1 sequence (Q12809 whole entry): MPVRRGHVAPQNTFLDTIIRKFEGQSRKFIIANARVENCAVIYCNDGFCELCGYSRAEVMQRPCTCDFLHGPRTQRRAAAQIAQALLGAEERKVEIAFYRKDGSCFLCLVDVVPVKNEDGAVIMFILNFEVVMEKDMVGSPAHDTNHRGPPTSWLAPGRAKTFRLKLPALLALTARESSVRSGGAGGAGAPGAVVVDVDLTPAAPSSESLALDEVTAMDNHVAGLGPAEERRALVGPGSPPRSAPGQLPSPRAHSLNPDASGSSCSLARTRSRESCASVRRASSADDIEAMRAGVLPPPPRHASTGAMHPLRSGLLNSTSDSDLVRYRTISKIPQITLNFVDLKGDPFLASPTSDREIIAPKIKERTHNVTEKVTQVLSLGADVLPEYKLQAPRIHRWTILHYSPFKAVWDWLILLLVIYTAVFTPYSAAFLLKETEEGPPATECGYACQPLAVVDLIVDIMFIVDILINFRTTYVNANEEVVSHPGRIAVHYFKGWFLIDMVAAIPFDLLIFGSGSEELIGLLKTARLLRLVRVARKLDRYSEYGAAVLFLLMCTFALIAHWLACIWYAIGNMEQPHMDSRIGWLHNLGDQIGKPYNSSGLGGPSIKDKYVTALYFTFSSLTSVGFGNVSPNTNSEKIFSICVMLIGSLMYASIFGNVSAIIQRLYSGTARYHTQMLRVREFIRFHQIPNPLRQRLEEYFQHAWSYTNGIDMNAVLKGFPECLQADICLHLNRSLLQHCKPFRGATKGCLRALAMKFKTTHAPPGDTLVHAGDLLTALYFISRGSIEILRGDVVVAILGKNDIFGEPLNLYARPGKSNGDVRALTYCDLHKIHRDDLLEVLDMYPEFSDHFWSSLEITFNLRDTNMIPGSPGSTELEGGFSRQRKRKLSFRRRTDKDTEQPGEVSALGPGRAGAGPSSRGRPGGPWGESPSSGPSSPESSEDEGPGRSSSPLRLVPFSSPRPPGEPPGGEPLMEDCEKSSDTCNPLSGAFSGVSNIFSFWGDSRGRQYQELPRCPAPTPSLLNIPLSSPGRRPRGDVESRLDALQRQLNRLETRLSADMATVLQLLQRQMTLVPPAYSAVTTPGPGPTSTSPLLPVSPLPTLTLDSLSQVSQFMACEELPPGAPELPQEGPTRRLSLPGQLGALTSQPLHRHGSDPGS
novel coronavirus envelope protein (2-E) ion channel, sequence (P0DTC4 whole entry, looked up): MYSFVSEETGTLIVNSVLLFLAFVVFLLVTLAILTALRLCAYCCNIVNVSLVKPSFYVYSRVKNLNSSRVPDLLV

| Compound | EC50 [1] | IC50 [2] | IC50 [3] | cytotoxicity on Vero E6 cells compared with oxyacanthine hydrochloride [4] | cell viability in LPS-induced inflammation model [5] | cell viability in TNF-α-induced inflammation model [6] | inhibition of inflammatory factors (mRNA) in TNF-α-induced inflammation model [7] | alleviation of H2O2-induced ALM12 hepatocyte injury [8] | inhibitory effect on Th1/Th17 differentiation [9] | EC50 [10] | IC50 [11] | inhibition against human coronavirus HCoV OC43 [10] | inhibition of injury (damage) factors mRNA in TNF-α-induced A549 lung cell injury model [12] | inhibition of inflammatory factors (IL-6, IL-1β, CXCL9 mRNA) in LPS-induced inflammation model [13] |
| --- | --- | --- | --- | --- | --- | --- | --- | --- | --- | --- | --- | --- | --- | --- |
| COc1cc2c3cc1Oc1c(OC)c(OC)cc4c1[C@H](Cc1ccc(cc1)Oc1cc(ccc1C(=O)NC1CC1)C[C@H]3N(C)CC2)N(C)CC4 [Compound 6] | 100 to 1000 nM | 8.9 µM | > 50 µM | weaker cytotoxicity than oxyacanthine hydrochloride | did not affect cell viability | did not affect cell viability | significantly inhibited inflammatory factors; also recorded: significant inhibition | significantly alleviated | strong inhibitory effect |  |  |  |  |  |
| COc1cc2c3cc1Oc1c(OC)c(OC)cc4c1[C@H](Cc1ccc(cc1)Oc1cc(ccc1C#N)C[C@H]3N(C)CC2)N(C)CC4 [Compound 1] | 100 to 1000 nM | 6.4 µM | 10 to 30 µM |  | did not affect cell viability | did not affect cell viability |  | significantly alleviated |  | 4.2 µM | < 10 µM |  |  |  |
| COC(=O)c1ccc2cc1Oc1ccc(cc1)C[C@H]1c3c(cc(OC)c(OC)c3Oc3cc4c(cc3OC)CCN(C)[C@@H]4C2)CCN1C [Compound 3] | 100 to 1000 nM | 7 µM | 30 to 50 µM | weaker cytotoxicity than oxyacanthine hydrochloride | did not affect cell viability | did not affect cell viability | significantly inhibited inflammatory factors; also recorded: significant inhibition | significantly alleviated | strong inhibitory effect | 2.3 µM | < 10 µM | strong inhibition | significantly inhibited the damage factors |  |
| COc1cc2c3cc1Oc1c(OC)c(OC)cc4c1[C@H](Cc1ccc(cc1)Oc1cc(ccc1C(=O)OCCOCCO)C[C@H]3N(C)CC2)N(C)CC4 [Compound 58] | 100 to 1000 nM | 16.5 µM | > 50 µM | weaker cytotoxicity than oxyacanthine hydrochloride | did not affect cell viability | did not affect cell viability | significantly inhibited inflammatory factors; also recorded: significant inhibition | significantly alleviated | strong inhibitory effect |  |  |  | significantly inhibited the damage factors | significantly inhibited inflammatory factors; also recorded: significant inhibition |

— patent publication US20250296937A1, “CYCLIC BISBENZYL TETRAHYDROISOQUINOLINE COMPOUND, AND PREPARATION METHOD THEREFOR AND USE THEREOF” (Shanghai Institute of Materia Medica, Chinesse Academy of …, priority 2021, published 2025)
